Reference: patent publication US11814391B2, “Macrocyclic compounds for the treatment of medical disorders” (Achillion Pharmaceuticals, Inc., priority 2018, dated 2023)

target: Human Factor D (Homo sapiens (Human), UniProt P00746); assay: Human Factor D assay; assay type: biochemical; conditions: Human Factor D 80 nM, substrate Z-L-Lys-SBzl, A405; read-out: IC50 (Stars)
Protocol: The assay of Example 3 was used to determine the IC50's of the compounds. Other standard factor D inhibition assays are also available.
Human Factor D (purified from human serum, Complement Technology, Inc.) at 80 nM final concentration is incubated with test compound at various concentrations for 5 min at room temperature in 50 mM Tris, 1M NaCl, pH 7.5. A synthetic substrate Z-L-Lys-SBzI and DTNB (Ellman's reagent) are added to final concentrations of 100 μM each. Absorbance at 405 nm (A405) is recorded at 30 second intervals for 30 min using a microplate spectrophotometer. IC50 values are calculated by nonlinear regression of complement Factor D reaction rates as a function of test compound concentration.

Sequence of Human Factor D (P00746 26-253): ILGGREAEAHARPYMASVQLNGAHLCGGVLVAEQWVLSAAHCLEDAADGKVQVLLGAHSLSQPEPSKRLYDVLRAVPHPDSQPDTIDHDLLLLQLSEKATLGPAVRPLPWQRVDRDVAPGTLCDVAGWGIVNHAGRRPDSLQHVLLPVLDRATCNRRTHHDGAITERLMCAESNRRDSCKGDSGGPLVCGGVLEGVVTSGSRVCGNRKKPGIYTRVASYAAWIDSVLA

Compound	IC50
CC(=O)c1nn2c3c(cc(-c4cnc(C)nc4)cc13)CCCCCCCCCc1ccc(Br)nc1NC(=O)[C@H](C)N(C)C(=O)C2 [Compound 38, (S)-13-acetyl-3-bromo-7,8-dimethyl-15-(2-methylpyrimidin-5-yl)-5,7,8,17,18,19,20,21,22,23,24,25-dodecahydro-6H-pyrido[2′,3′:8,9][1,4,7]triazacycloicosino[19,20,1-hi]indazole-6,9(10H)-dione]	> 10 µM
CC(=O)c1nn2c3c(cc(NCC4CCCCC4)cc13)CCCCCCC(=O)NC[C@@]13C[C@@H](C(=O)Nc4nc(C(F)(F)F)ccc4C)N(C(=O)C2)[C@@H]1C3 [Compound 39, (4^1R,4^3S,4^5R)-1^3-acetyl-1^5-((cyclohexylmethyl)amino)-N-(3-methyl-6-(trifluoromethyl)pyridin-2-yl)-3,7-dioxo-1^1H-4^2,6-diaza-1(1,7)-indazola-4(2,5)-bicyclo[3.1.0]hexanacyclotridecaphane-4^3-carboxamide]	< 1 µM
CC(=O)c1nn2c3c(cc(-c4cnc(C)nc4)cc13)CCCCCCCCO[C@@H]1CCN(C(=O)C2)[C@@H]1C(=O)NCc1cccc(Cl)c1F [Compound 40, (4^2S,4^3R)-1^3-acetyl-N-(3-chloro-2-fluorobenzyl)-1^5-(2-methylpyrimidin-5-yl)-3-oxo-1^1H-5-oxa-1(1,7)-indazola-4(1,3)-pyrrolidinacyclotridecaphane-4^2-carboxamide]	< 1 µM
CC(=O)c1nn2c3c(nc(C)cc13)C/C=C/CCCCCC(=O)NCc1ccc(Br)nc1NC(=O)[C@@H]1C[C@@]3(C)C[C@H]3N1C(=O)C2 [Compound 45, (20aS,21aR,22aR,E)-26-acetyl-17-bromo-2,21a-dimethyl-8,9,10,11,13,14,20a,21,21a,22,22a,24-dodecahydro-3,13,18,19,22b,24a,25-heptaazabenzo[15,16]cyclopropa[3′,4′]cyclopenta[1′,2′:19, 20]cyclodocosa[1,2,3-cd]indene-12,20,23(4H,7H,19H)-trione]	< 1 µM
CC(=O)c1nn2c3c(cccc13)CC/C=C/CC(=O)NC[C@@]13C[C@@H](C(=O)Nc4nc(Br)ccc4C)N(C(=O)C2)[C@@H]1C3 [Compound 46, (41R,43S,45R,E)-13-acetyl-N-(6-bromo-3-methylpyridin-2-yl)-3,7-dioxo-11H-42,6-diaza-l(1,7)-indazola-4(2,5)-bicyclo[3.1.0]hexanacyclododecaphan-9-ene-43-carboxamide]	< 1 µM
CC(=O)c1nn2c3c(cccc13)CC/C=C/CCC(=O)NC[C@@]13C[C@@H](C(=O)Nc4nc(Br)ccc4C)N(C(=O)C2)[C@@H]1C3 [Compound 47, (41R,43S,45R,E)-13-acetyl-N-(6-bromo-3-methylpyridin-2-yl)-3,7-dioxo-11H-42,6-diaza-1(1,7)-indazola-4(2,5)-bicyclo[3.1.0]hexanacyclotridecaphan-10-ene-43-carboxamide]	< 1 µM
CC(=O)c1nn(CC(=O)N2[C@H]3C[C@]4(C[C@@H]24)Cn2cc(nn2)COCc2ccc(Br)nc2NC3=O)c2cnccc12 [Compound 48, (31R,33S,35R,Z)-32-(2-(3-acetyl-1H-pyrazolo[3,4-c]pyridin-1-yl)acetyl)-66-bromo-11H-8-oxa-32,5-diaza-6(2,3)-pyridina-1(1,4)-triazola-3(5,3)-bicyclo[3.1,0]hexanacyclononaphan-4-one]	< 1 µM
CC(=O)c1nn2c3c(cc(-c4cnc(C)nc4)cc13)CCCCCCCCc1ccc(Br)nc1NC(=O)[C@H](C)N(C)C(=O)C2 [Compound 51, (S)-2-acetyl-16-bromo-20,21-dimethyl-4-(2-methylpyrimidin-5-yl)-6,7,8,9,10,11,12,13,20,21 - decahydropyrido[2′,3′:8,9][1,4,7]triazacyclononadecino [18,19,1-hi]indazole-19,22(18H,23H)-dione]	> 10 µM
CC(=O)c1nn2c3c(cc(NCC4CCCCC4)cc13)CCCCCCC(=O)NCC13CC(C(=O)Nc4nc(C(F)(F)F)ccc4C)N(C(=O)C2)C1C3 [Compound 52, (41R,43S,45R)-13-acetyl-15-((cyclohexylmethyl)amino)-N-(3-methyl-6-(trifluoromethyl)pyridin-2-yl)-3,7-dioxo-11H-42,6-diaza-1(1,7)-indazola-4(2,5)-bicyclo[3.1.0]hexanacyclotridecaphane-43-carboxamide]	< 1 µM
CC(=O)c1nn2c3c(cc(-c4cnc(C)nc4)cc13)CCCCCCCCCCCO[C@@H]1CCN(C(=O)C2)[C@@H]1C(=O)NCc1cccc(Cl)c1F [Compound 54, (42S,43R)-13-acetyl-N-(3-chloro-2-fluorobenzyl)-15-(2-methylpyrimidin-5-yl)-3-oxo-11H-5-oxa-1(1,7)-indazola-4(1,3)-pyrrolidinacyclohexadecaphane-42-carboxamide]	< 1 µM
CC(=O)c1nn2c3c(cc(NC4CCCC4)cc13)CCCCCCC(=O)NCC13CC(C(=O)Nc4nc(C(F)(F)F)ccc4C)N(C(=O)C2)C1C3 [Compound 55, (41R,43S,45R)-13-acetyl-15-(cyclopentylamino)-N-(3-methyl-6-(trifluoromethyl)pyridin-2-yl)-3,7-dioxo-11H-42,6-diaza-1(1,7)-indazola-4(2,5)-bicyclo[3.1.0]hexanacyclotridecaphane-43-carboxamide]	< 1 µM
CC(=O)c1nn2c3c(cc(-c4cnc(C)nc4)cc13)CCCCCCCCCC[C@@H](C(=O)Nc1nc(Br)ccc1C)N(C)C(=O)C2 [Compound 56, (S)-2-acetyl-N-(6-bromo-3-methylpyridin-2-yl)-17-methyl-4-(2-methylpyrimidin-5-yl)-18-oxo-6,7,8,9,10,11,12,13,14,15,16,17,18,19-tetradecahydro-[1,4]diazacycloheptadecino[16,17,1-hi]indazole-16-carboxamide]	> 10 µM
CC(=O)c1nn2c3c(cc(NC(=O)C4CC4)cc13)CCCCCCC(=O)NCC13CC(C(=O)Nc4nc(C(F)(F)F)ccc4C)N(C(=O)C2)C1C3 [Compound 57, (41R,43S,45R)-13-acetyl-15-(cyclopropanecarboxamido)-N-(3-methyl-6-(trifluoromethyl)pyridin-2-yl)-3,7-dioxo-11H-42,6-diaza-1(1,7)-indazola-4(2,5)-bicyclo[3.1.0]hexanacyclotridecaphane-43-carboxamide]	< 1 µM
CC(=O)c1nn2c3c(cc(-c4cnc(C)nc4)cc13)NCCCCCC(=O)NCC13CC(C(=O)Nc4nc(C(F)(F)F)ccc4C)N(C(=O)C2)C1C3 [Compound 58, (41R,43S,45R)-13-acetyl-N-(3-methyl-6-(trifluoromethyl)pyridin-2-yl)-15-(2-methylpyrimidin-5-yl)-3,7-dioxo-11H-42,6,13-triaza-1(1,7)-indazola-4(2,5)-bicyclo[3.1.0]hexanacyclotridecaphane-43-carboxamide]	< 1 µM
CC(=O)c1nn2c3c(cc(-c4cnc(C)nc4)cc13)CCCCCC(C)(C)CNC[C@@]13C[C@@H](C(=O)Nc4nc(C(F)(F)F)ccc4C)N(C(=O)C2)[C@@H]1C3 [Compound 59, (41R,43S,45R)-13-acetyl-8,8-dimethyl-N-(3-methyl-6-(trifluoromethyl)pyridin-2-yl)-15-(2-methylpyrimidin-5-yl)-3-oxo-11H-42,6-diaza-1(1,7)-indazola-4(2,5)-bicyclo[3.1.0]hexanacyclotridecaphane-43-carboxamide]	< 1 µM
CC(=O)c1nn2c3c(cc(-c4cnc(C)nc4)cc13)NC(=O)CCCCCOCC13CC(C(=O)Nc4nc(C(F)(F)F)ccc4C)N(C(=O)C2)C1C3 [Compound 60, (41R,43S,45S)-13-acetyl-N-(3-methyl-6-(trifluoromethyl)pyridin-2-yl)-15-(2-methylpyrimidin-5-yl)-3,12-dioxo-11H-6-oxa-42,13-diaza-1(1,7)-indazola-4(2,5)-bicyclo[3.1.0]hexanacyclotridecaphane-43-carboxamide]	< 1 µM
CC(=O)c1nn2c3c(cc(-c4cnc(C)nc4)cc13)CCCCCC(C)(C)CNC[C@@]13C[C@@H](C(=O)NC4CC(C)(C)C4)N(C(=O)C2)[C@@H]1C3 [Compound 61, (41R,43S,45R)-13-acetyl-N-(3,3-dimethylcyclobutyl)-8,8-dimethyl-15-(2-methylpyrimidin-5-yl)-3-oxo-11H-42,6-diaza-1(1,7)-indazola-4(2,5)-bicyclo[3.1.0]hexanacyclotridecaphane-43-carboxamide]	< 1 µM

test system: not given; assay: not given; conditions: from C=CCCC(=O)NCC12CC(C(=O)Nc3nc(C(F)(F)F)ccc3C)N(C(=O)Cn3nc(C(C)=O)c4cc(-c5cnc(C)nc5)cc(N(CC=C)C(=O)OCc5ccccc5)c43)C1C2; rcm bond; 17-membered ring; Grubbs II; toluene; 1.42 mM; 80.0 °C

Compound	ring closure, isolated yield
CC(=O)c1nn2c3c(cc(-c4cnc(C)nc4)cc13)N(C(=O)OCc1ccccc1)CC=CCCC(=O)NCC13CC(C(=O)Nc4nc(C(F)(F)F)ccc4C)N(C(=O)C2)C1C3 (centres unmarked)	57.2%

same assay, conditions: from C=CCCC(=O)Nc1cc(-c2cnc(C)nc2)cc2c(C(C)=O)nn(CC(=O)N3C(C(=O)Nc4nc(C(F)(F)F)ccc4C)CC4(COCC=C)CC34)c12; rcm bond; 17-membered ring; Grubbs II; toluene; 1.35 mM; 80.0 °C

Compound	ring closure, isolated yield
CC(=O)c1nn2c3c(cc(-c4cnc(C)nc4)cc13)NC(=O)CCC=CCOCC13CC(C(=O)Nc4nc(C(F)(F)F)ccc4C)N(C(=O)C2)C1C3 (centres unmarked)	65.8%

same assay, conditions: from C=CCCC(C)(C)C(=O)NC[C@@]12C[C@@H](C(=O)Nc3nc(C(F)(F)F)ccc3C)N(C(=O)Cn3nc(C(C)=O)c4cc(-c5cnc(C)nc5)cc(CC=C)c43)[C@@H]1C2; rcm bond; 17-membered ring; Grubbs II; toluene; 1.6 mM; 80.0 °C; 16.0 h

Compound	ring closure, isolated yield
CC(=O)c1nn2c3c(cc(-c4cnc(C)nc4)cc13)CC=CCCC(C)(C)C(=O)NC[C@@]13C[C@@H](C(=O)Nc4nc(C(F)(F)F)ccc4C)N(C(=O)C2)[C@@H]1C3	71.3%
